The values below come from patent publication US20150111860A1, “SUSPOEMULSION” (SUMITOMO CHEMICAL COMPANY, LIMITED, priority 2012, published 2015).

Where two headings read alike, the source gives them in different places.

This data set is described as follows: Solubility of ingredient (2) in 100 g of the oil phase (ingredient (1)) at 25° C. by HPLC. In kind it is physicochemical. The protocol: The solubility can be determined in the following manner. That is, an ingredient (2) is added to an ingredient (1), followed by mixing with stirring. After being left to stand in a constant temperature water bath at 25° C., the supernatant containing the ingredient (2) in a saturated state is isolated and filtered to obtain a solution, and then a prescribed amount of an internal standard fluid is added to prepare a sample liquid for analysis. Using the sample liquid for analysis, high-performance liquid chromatography is performed, thus enabling the measurement of the solubility.

[1] abbreviates: oil phase composed of pyridalyl and Exxsol D110, 25° C.

On to `CN/C(=N\[N+](=O)[O-])NCc1cnc(Cl)s1` [clothianidin], for which the “solubility in 100 g of the oil phase” value worked out at 0.003 g (oil phase composed of esfenvalerate and Solvesso 150, 25° C.); 0.009 g under setting [1]; 0.002 g (oil phase composed of tolclofos-methyl and Solvesso 150, 25° C.).

On to `CCNc1nc(CC)c(C(=O)NC(C#N)c2cccs2)s1` (stereo not drawn) [ethaboxam], for which the “solubility in 100 g of the oil phase” value was found to be 0.003 g.

Regarding `Cc1nn(C)c(Cl)c1C(=O)Nc1cccc2c1C(C)OC2(C)C` (stereo not drawn) [furametpyr], the “solubility in 100 g of the oil phase” value is 0.394 g.

As to `N#Cc1ccccc1NC(=O)c1snc(Cl)c1Cl` [isotianil], the “solubility in 100 g of the oil phase” value under setting [1] was determined as 0.020 g.
